In patent US20240270821A1, “GIP/GLP1/GCG TRI-RECEPTOR AGONISTS AND USES THEREOF” (priority 2023, published 2024):
Starred links: 1 amine or outer side, 2 acyl side, 3 side chain; linkers in the order of their positions; H or OH if unused. Non-standard residues stand in square brackets, D forms with d. Groups on a side chain read outwards from the residue. *: point of attachment. C18 diacid = O=C(O)CCCCCCCCCCCCCCCCC(=O)*; αMePhe(2-F) = C[C@](N)(Cc1ccccc1F)C(=O)O; γGlu = O=C(O)[C@H](CCC(=O)[*:2])N[*:1]; αMe4Pal = C[C@](N)(Cc1ccncc1)C(=O)O; αMeY = C[C@](N)(Cc1ccc(O)cc1)C(=O)O; 4Pal = N[C@@H](Cc1ccncc1)C(=O)O; αMeL = CC(C)C[C@](C)(N)C(=O)O; αMeS = C[C@](N)(CO)C(=O)O; Orn = NCCC[C@H](N)C(=O)O; AEEA = NCCOCCOCC(=O)O; Aib = CC(C)(N)C(=O)O

Columns and labels:
[1] = molecular target: T1, hGIPR (Homo sapiens, UniProt P48546); assay: Functional cAMP activity in the presence of 1% HSA; type: cell-based; settings: read-out: cAMP Rel EC50, hGIPR
T1 sequence (P48546 22-466): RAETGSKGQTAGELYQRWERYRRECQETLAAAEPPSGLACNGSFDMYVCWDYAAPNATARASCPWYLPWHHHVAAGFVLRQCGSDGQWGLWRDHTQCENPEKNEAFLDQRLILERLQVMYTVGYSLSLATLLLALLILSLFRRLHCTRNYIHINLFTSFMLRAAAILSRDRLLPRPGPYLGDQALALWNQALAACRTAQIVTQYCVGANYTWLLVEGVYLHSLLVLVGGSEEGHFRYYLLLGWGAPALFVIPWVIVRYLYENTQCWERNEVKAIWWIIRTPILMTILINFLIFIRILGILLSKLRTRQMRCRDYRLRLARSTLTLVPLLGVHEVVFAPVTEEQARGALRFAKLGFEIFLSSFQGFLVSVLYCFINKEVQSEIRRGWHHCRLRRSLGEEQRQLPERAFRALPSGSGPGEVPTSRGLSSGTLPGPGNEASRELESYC

[2] = in vivo; set-up: species or system cynomolgus monkeys; settings: both sexes, cynomolgus monkey, po; for bioavailability: 10 mg; for AUC(0-inf) / CL/F / Cmax / Tmax / half-life: 300 mg
Protocol: (§1) A study is designed to evaluate the oral bioavailability of Example polypeptides in cynomolgus monkeys. […] Standards and controls are prepared in cynomolgus monkey plasma, and any dilutions required to bring samples into the quantitative range are also performed in control cynomolgus monkey plasma. To control assay variability, an internal standard (IS) is added to all the standards and samples. The Examples and IS are extracted from 100% monkey plasma (50 μL) by protein precipitation using isopropyl alcohol and methanol (50:50 v/v). The samples are then centrifuged (3000 rpm for 10 minutes) and the supernatant is transferred to a Siricco Protein Precipitation Plate. The samples are loaded on a Sep-Pak tC18 SPE microelution plate that is conditioned with 2% formic acid in acetonitrile and water. The compounds are then washed with 2% formic acid in water and eluted using 2% formic acid in acetonitrile into a plate containing 5× Invitrosol and 1% formic acid in water prior to injecting an aliquot (10 μL) on to Xselect CSH C18, 3.5 μm, 2.1×20 mm for LC/MS analysis.
[…] Blood samples are collected up to 504 hours post-dose. Plasma is harvested from blood samples by centrifugation and stored frozen (−70° C.) until analysis. Plasma concentrations of the molecules are detected using the bioanalytical method described above.

[3] = molecular target: human GcgR (Homo sapiens, UniProt P47871); assay: Functional cAMP activity in the presence of 1% HSA; type: cell-based; settings: read-out: cAMP Rel EC50, hGcgR
[4] = molecular target: T2, hGLP-1R (Homo sapiens, UniProt P43220); assay: Functional cAMP activation in the presence of 0.1% casein (no HSA); type: cell-based; settings: read-out: Relative cAMP EC50, hGLP-1R;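 note: intracellular cAMP rise after 30 min at 37 °C read by HTRF, normalized between buffer only (0%) and maximal control ligand (100%), four-parameter variable-slope fit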
Protocol: After a 30-minute incubation at 37° C., the resulting increase in intracellular cAMP is quantitatively determined using the CisBio CAMP Dynamic 2 HTRF Assay Kit (62AM4PEJ). Briefly, cAMP levels within the cell are detected by adding the cAMP-d2 conjugate in cell lysis buffer followed by the antibody anti-cAMP-Eu^3+-Cryptate, also in cell lysis buffer.
Intracellular cAMP levels are determined by extrapolation using a standard curve. Dose response curves of compounds are plotted as the percentage of stimulation normalized to minimum (buffer only) and maximum (maximum concentration of each control ligand) values and analyzed using a four parameter non-linear regression fit with a variable slope (Genedata Screener 13). EC50 is the concentration of compound causing half-maximal simulation in a dose response curve. Each relative EC50 value for the Geometric mean calculation is determined from a curve fitting.

[5] = molecular target: hGcgR (Homo sapiens, UniProt P47871); assay: as above; type: cell-based; settings: read-out: Relative cAMP EC50, hGcgR;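 note: intracellular cAMP rise after 30 min at 37 °C, read by HTRF against a cAMP standard curve, scaled from buffer only (0%) to maximal control ligand response (100%)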
[6] = in vivo; set-up: species or system cynomolgus monkeys; settings: both sexes, cynomolgus monkey, iv, 10 nmol/kg
Protocol: as §1
Blood samples are collected over 504 hours. Plasma is harvested from blood samples by centrifugation and stored frozen (−70° C.) until analysis. Plasma concentrations of the molecules are detected using the bioanalytical method described above.

[7] = molecular target: human GLP1-R (Homo sapiens, UniProt P43220); assay: GLP1-R internalization assay in HEK293 cells; type: cell-based; settings: for EC50: HEK293 cells expressing SNAP-GLP-1R, read-out: GLP1R Internalization EC50; for Internalization % TOP: normalized to maximum concentration of GLP-1 (100%)
[8] = molecular target: T1, hGIPR; assay: Functional cAMP activation in the presence of 0.1% casein (no HSA); type: cell-based; settings: read-out: Relative cAMP EC50, hGIPR;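 for Relative cAMP EC50, hGIPR: intracellular cAMP rise after 30 min at 37 °C read by HTRF against a standard curve, scaled between buffer alone (0%) and top control ligand concentration (100%), four-parameter fit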;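 for Relative cAMP EC50, hGcgR: intracellular cAMP rise after 30 min at 37 °C, read by HTRF against a cAMP standard curve, scaled from buffer only (0%) to maximal control ligand response (100%)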
[9] = molecular target: T2, hGLP-1R; assay: Functional cAMP activity in the presence of 1% HSA; type: cell-based; settings: read-out: cAMP Rel EC50, hGLP-1R
[10] = Body weight in diet-induced obese C57BL/6 mice; type: in vivo; settings: 10 nmol/kg SC QD, 14 days, percent of starting weight, DIO mice, mean ± SEM n=5
Summary of the method: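 Male C57BL/6 DIO mice (41-50 g, 5 per group, randomized by weight) on calorie-rich diet received subcutaneous doses 30-90 min before dark onset, QD or Q3D for 9-16 days. Body weight measured daily, expressed as percent of starting weight, mean±SEM.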

[11] = system: Intestinal organoid from Göttingen minipig jejunum tissue, 2D monolayer; assay: Cell based in vitro permeability (Papp) assay; type: in vitro ADME
Summary of the method: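 2D monolayers derived from Göttingen minipig jejunal organoids on transwell inserts. Basal samples collected at 20 min in the presence of C10. Peptide in apical and basal compartments quantified by LC/MS to give Papp.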

[12] = Pepsin stability assay in simulated gastric fluid; type: in vitro ADME; settings: pH 1.2, % Intact (SD)
Protocol: A pepsin stability assay is utilized to determine the relative stability of Example polypeptides in a simulated gastric proteolytic environment. […] The relative amount of intact peptide is quantified by mass spectrometry (MS). […] The examples were dissolved in 50 mM Tris buffer pH 8.0 at a concentration of 10 mg/mL as a stock solution. Pepsin A was reconstituted in SGF at 10 mg/mL. […] The example peptide and pepsin solutions were then incubated at 37° C. in a shaking incubator set at 100 rpm. Samples (25 μL) were withdrawn at different time intervals and quenched with 100 mM ammonium bicarbonate pH 9 (50 μL) to stop proteolytic activity. All samples were centrifuged, and the supernatants were analyzed by LC/MS to determine the remaining intact peptide.

human GLP1-R, sequence (P43220 24-463): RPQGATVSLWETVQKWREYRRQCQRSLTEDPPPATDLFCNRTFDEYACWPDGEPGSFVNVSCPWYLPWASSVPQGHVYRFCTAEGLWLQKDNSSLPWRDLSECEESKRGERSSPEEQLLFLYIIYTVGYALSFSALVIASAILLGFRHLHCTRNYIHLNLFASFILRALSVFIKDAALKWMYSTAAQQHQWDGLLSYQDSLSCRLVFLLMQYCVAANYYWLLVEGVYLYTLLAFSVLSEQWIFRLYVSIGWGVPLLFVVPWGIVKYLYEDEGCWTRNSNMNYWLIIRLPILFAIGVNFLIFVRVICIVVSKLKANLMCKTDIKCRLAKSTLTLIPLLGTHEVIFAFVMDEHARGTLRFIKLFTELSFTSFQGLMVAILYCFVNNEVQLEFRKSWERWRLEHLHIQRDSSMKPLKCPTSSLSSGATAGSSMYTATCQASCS
T2 sequence (P43220 24-463): as above
hGcgR, sequence (P47871 26-477): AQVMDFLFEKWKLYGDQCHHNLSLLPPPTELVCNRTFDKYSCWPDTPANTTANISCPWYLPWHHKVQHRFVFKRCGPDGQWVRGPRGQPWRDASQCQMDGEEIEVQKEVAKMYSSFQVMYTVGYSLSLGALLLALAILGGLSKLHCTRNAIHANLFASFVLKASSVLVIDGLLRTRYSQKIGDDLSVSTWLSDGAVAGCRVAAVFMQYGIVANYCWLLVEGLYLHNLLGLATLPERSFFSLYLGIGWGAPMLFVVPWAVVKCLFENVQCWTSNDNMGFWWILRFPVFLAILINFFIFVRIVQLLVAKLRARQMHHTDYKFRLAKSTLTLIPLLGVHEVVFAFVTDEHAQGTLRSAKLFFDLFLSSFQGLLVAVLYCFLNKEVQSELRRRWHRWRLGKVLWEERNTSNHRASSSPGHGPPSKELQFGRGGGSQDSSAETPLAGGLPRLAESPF
human GcgR, sequence (P47871 26-477): as above

Row | Substance | EC50 [1] | bioavailability [2] | AUC(0-inf) [2] | CL/F [2] | Cmax [2] | Tmax [2] | half-life [2] | EC50 [3] | EC50 [4] | EC50 [5] | AUC(0-inf) [6] | clearance [6] | half-life [6] | EC50 [7] | Internalization % TOP [7] | EC50 [8] | EC50 [9] | Body weight (%) [10] | also measured
1 | H-Y[Aib]QGT[αMePhe(2-F)]TSD[4Pal]SILLDKK([γGlu-γGlu-C18 diacid])AQ[Aib]AFIEYLEEGGPSSGAPPPSGTGE-NH2 [Example 510] | 6.4 nM | 0.7% | 5.09 µM·h | 5.17 mL/min/kg | 126 nM | 2 h | 47 h | 564 nM | 0.71 nM | 5.44 nM | 14.5 ± 3.42 µM·h | 0.0119 mL/min/kg | 55.9 ± 13.2 h | 11.8 nM | 113% | 0.0627 nM | 74.2 nM | – | –
2 | H-Y[Aib]QGT[αMePhe(2-F)]TSD[4Pal]SI[αMeL]LD[Orn]K([γGlu-γGlu-C18 diacid])AQ[αMe4Pal][Orn]FI[dE][αMeY]LIEGGPSSGEPPPETE-NH2 [Example 686] | 0.542 nM | 3.6% | 14.2 µM·h | 2.93 mL/min/kg | 249 nM | 1 h | 44.6 h | 169 nM | 0.298 nM | 2.43 nM | 7.04 ± 1.29 µM·h | 0.0243 mL/min/kg | 41.5 ± 2.35 h | 33.2 nM | 101% | 0.00776 nM | 19.1 nM | 72.73 ± 3.65 % | Relative Papp (Compared to internal standard) [11]: 0.60
3 | H-Y[Aib]QGT[αMePhe(2-F)]TSD[4Pal][αMeS]ILLD[Orn]K([γGlu-γGlu-C18 diacid])AQ[Aib][Orn]FI[dE]YLIEGGPSSGEPPPSGTGE-NH2 [Example 548] | 3.48 nM | 0.6% | 3.58 µM·h | 2.7 mL/min/kg | 75.7 nM | 1.5 h | 45 h | 295 nM | 0.478 nM | 3.94 nM | 10.5 ± 1.58 µM·h | 0.0162 mL/min/kg | 53.2 ± 0.603 h | 17.8 nM | 109% | 0.0547 nM | 38 nM | – | –
4 | H-Y[Aib]QGT[αMePhe(2-F)]TSD[4Pal][αMeS]I[αMeL]LD[Orn]K([AEEA-γGlu-C18 diacid])AQ[αMe4Pal]EFI[dE][αMeY]LIEGGPSSGAPPPSGGGE-NH2 [Example 741] | 0.817 nM | 0.8% | 4.2 µM·h | 2.28 mL/min/kg | 95.8 nM | 3.75 h | 58.1 h | 200 nM | 0.239 nM | 2.01 nM | 9.55 ± 2.28 µM·h | 0.0182 mL/min/kg | 32.1 ± 4.22 h | 50.1 nM | – | 0.00612 nM | 32.4 nM | 59.42 ± 2.94 % | remaining at 0.25 h, 0.4 mg/mL [12]: 111%; remaining at 0.5 h, 0.4 mg/mL [12]: 104%; remaining at 1 h, 0.4 mg/mL [12]: 105%
